IC50, AC50 and EC50 data for 4 compounds are collected here from ChEMBL document CHEMBL1201862, “PubChem BioAssay data set” (2004).

The source made the active and inactive calls.

In test [1] the target is T1, Tyrosyl-DNA phosphodiesterase 2 (Homo sapiens, UniProt O95551).
T1 sequence (O95551 whole entry): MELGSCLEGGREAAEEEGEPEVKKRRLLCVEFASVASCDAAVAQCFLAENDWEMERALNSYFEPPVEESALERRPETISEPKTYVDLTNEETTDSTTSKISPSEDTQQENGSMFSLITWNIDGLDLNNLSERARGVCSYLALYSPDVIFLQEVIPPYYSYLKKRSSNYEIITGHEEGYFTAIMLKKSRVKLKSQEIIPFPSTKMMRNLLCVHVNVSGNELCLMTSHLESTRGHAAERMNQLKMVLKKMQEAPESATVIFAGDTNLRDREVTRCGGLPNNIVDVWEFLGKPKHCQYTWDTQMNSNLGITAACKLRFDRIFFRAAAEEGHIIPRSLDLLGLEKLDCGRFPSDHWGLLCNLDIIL
Nature of the test: human TDP2 enzyme inhibitors, dose response, biochemical, epi absorbance, IC50 (AID 743297).

Test [2] is described as follows: HepG2 cell cytotoxicity, dose response, cytotoxicity control, plate reader, cherry-pick, antagonist series (AID 743416). The test is classed as functional, cell-based.
The nature of test [3]: LGR2 antagonists, dose response, cell-based, HEK293, CRE-luciferase reporter, cherry pick, set 2 (AID 743343).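 Note: transfected cells were stimulated with diluted bursicon conditioned medium after compound addition.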 The format is functional. A general note: A reporter such as luciferase makes a cellular process visible.
The target in test [4] is T2, Apoptotic protease-activating factor 1 (Homo sapiens, UniProt O14727).
T2 sequence (O14727 whole entry): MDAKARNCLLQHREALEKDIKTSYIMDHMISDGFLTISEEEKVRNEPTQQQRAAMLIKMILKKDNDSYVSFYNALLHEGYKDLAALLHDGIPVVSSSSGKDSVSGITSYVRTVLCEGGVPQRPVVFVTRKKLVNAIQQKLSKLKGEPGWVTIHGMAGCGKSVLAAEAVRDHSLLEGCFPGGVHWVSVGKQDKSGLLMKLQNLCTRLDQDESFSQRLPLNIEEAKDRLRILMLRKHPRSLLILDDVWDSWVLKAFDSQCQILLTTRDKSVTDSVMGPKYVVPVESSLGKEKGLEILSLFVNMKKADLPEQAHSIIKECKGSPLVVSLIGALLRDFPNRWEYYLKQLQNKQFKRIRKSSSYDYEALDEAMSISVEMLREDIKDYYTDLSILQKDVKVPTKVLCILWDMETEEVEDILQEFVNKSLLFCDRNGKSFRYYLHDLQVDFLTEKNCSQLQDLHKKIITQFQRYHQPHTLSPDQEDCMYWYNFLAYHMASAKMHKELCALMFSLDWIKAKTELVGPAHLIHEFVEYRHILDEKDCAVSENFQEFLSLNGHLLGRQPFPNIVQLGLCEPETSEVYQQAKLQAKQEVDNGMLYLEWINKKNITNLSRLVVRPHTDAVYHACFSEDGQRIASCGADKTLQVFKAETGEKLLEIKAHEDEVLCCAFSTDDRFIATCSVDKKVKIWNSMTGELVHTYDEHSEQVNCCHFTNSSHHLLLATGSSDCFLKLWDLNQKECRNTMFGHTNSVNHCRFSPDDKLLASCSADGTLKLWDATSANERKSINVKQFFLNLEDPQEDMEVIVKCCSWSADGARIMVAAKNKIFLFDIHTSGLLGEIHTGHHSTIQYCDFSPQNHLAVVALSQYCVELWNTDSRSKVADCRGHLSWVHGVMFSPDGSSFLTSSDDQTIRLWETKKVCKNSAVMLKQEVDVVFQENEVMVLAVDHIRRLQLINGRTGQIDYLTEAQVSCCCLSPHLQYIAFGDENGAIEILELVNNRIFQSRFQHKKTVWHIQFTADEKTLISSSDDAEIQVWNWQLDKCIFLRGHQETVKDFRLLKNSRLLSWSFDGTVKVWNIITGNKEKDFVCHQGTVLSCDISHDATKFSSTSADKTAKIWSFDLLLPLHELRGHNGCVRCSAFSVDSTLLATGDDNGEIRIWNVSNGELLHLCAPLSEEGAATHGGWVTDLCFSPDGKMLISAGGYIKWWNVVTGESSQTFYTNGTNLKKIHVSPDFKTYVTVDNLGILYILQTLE
The format is functional.

In a further test the target is T3, Protein RecA (Mycobacterium tuberculosis, UniProt P9WHJ3).
T3 sequence (P9WHJ3 whole entry): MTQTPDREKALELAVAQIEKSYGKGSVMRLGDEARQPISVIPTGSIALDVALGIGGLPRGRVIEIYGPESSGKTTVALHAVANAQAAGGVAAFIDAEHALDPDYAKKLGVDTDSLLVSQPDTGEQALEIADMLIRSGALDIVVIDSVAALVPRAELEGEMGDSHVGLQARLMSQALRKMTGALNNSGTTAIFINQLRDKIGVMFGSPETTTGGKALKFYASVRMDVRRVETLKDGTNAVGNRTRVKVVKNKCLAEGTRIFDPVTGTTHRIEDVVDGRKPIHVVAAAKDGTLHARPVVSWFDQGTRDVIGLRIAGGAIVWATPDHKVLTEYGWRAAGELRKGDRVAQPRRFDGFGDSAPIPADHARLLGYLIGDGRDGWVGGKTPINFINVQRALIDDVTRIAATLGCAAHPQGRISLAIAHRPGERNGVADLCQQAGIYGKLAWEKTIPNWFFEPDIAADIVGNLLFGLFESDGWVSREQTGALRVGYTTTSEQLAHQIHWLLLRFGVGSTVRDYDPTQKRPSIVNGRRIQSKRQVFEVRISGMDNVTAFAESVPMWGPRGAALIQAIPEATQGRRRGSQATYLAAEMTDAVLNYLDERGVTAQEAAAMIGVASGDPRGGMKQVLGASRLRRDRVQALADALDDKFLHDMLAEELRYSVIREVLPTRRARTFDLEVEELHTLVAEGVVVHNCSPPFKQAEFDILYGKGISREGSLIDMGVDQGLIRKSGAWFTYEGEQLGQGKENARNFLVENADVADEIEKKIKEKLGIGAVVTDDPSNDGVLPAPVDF
The experiment in a line: Fluorescence Cell-Free Homogeneous Dose Retest to Identify Inhibitors of RecA-Intein Splicing Activity. [Related pubchem assays (depositor defined):AID2097, AID2223, AID489010, AID492950]. The test is classed as functional.

The IC50 is the concentration at which inhibition is half-maximal. In the case of `O=C1c2ccccc2C(=O)C12OC2c1cccc2ccccc12` (stereo not given), the IC50 in test [1] is 5.07 µM (active).
Broadly, the AC50 is the concentration at which the activity in the assay is half-maximal. `CCC(COC)Oc1cc(NCc2ccccc2)c2ncn(C(C)C)c2c1` (stereo not given): the IC50 in test [1] was > 42.8 µM (inactive); in test [4], 16.7 µM (active). Also, the AC50 is 19.6 µM (active) in test [2] and 23.1 µM (active) in test [3].
Usually EC50 stands for the concentration giving half of the maximal effect. As to `O=c1[nH]c(N2CCOCC2)cc2ccccc12`, on Protein RecA, the EC50 is > 380 µM (inconclusive). In addition, the IC50 in test [4] was 8.83 µM (active).
With `O=[N+]([O-])c1ccc(Sc2nc3ccccc3o2)c([N+](=O)[O-])c1`, the AC50 is 6.16 µM (active) in test [2] and 24.9 µM (active) in test [3]. Also, the half-maximal effective concentration (EC50) on Protein RecA is 1.5 µM (active).
